Test results: article PMC6601062, “Identification of duck liver-expressed antimicrobial peptide 2 and characterization of its bactericidal activity” (Asian-Australasian Journal of Animal Sciences, 2018)
Bridge positions count the residues as written; N and C are the ends. Peptide text beside a SMILES is read from it.

Assays:
[1] = system: Listeria monocytogenes (L. monocytogenes) ATCC 19115; test: Antimicrobial activity assay (colony counting); assay type: cell-based; conditions: 50 μg/mL peptide, 3 h at 37°C, 5.0×10^5 CFU/mL in PBS pH 7.4, colony counting
Experimental: (§1) The bacterial species used in this experiment included two gram-positive bacteria strains, Listeria monocytogenes (L. monocytogenes) ATCC 19115 and Staphylococcus aureus (S. aureus) ATCC 27664, and four gram-negative bacteria strains, E. coli ATCC 43888, Salmonella enterica serovar Enteritidis YHS 383, Salmonella enterica serovar Choleraesuis YHS 386, and Salmonella enterica serovar Typhimurium ATCC 43174.
(§2) Bacteria were cultured overnight at 37°C in LB broth for E. coli, and in tryptic soy broth for the other bacteria, and suspended to 5.0×10^5 colony-forming units (CFU)/mL in PBS (pH 7.4). To measure antimicrobial activity, 25 μL of bacteria were added into 96-well microtiter plates and diluted duck LEAP-2 peptides were dispensed to final concentrations of 50, 100, 150, and 200 μg/mL. After 3 h of incubation at 37°C, surviving bacteria were counted using a standard colony counting assay according to the following formula: cell survival % = (treatment CFU/negative control CFU)×100. To determine the killing kinetics, L. monocytogenes and S. aureus were cultured overnight in tryptic soy broth and suspended to 5.0×10^5 CFU/mL in PBS (pH 7.4). Bacteria were added into 96-well microtiter plates with a final peptide concentration of 200 μg/mL. The bacteria and peptide mixture was incubated for 0, 30, 60, 90, and 180 min at 37°C. Surviving bacteria were counted using a standard colony counting assay.

[2] = system: Salmonella enterica serovar Typhimurium ATCC 43174; test: Antimicrobial activity assay (colony counting); assay type: cell-based; conditions: 200 μg/mL peptide, 3 h at 37°C, PBS pH 7.4, colony counting
Experimental: as §1, §2

[3] = system: Staphylococcus aureus (S. aureus) ATCC 27664; test: Antimicrobial activity assay (colony counting); assay type: cell-based; conditions: 50 μg/mL peptide, 3 h at 37°C, 5.0×10^5 CFU/mL in PBS pH 7.4, colony counting
Experimental: as §1, §2

E. coli ATCC 43888 = test: Antimicrobial activity assay (colony counting); assay type: cell-based, Escherichia coli; conditions: 50 μg/mL peptide, 3 h at 37°C, PBS pH 7.4, colony counting
Experimental: as §1
as §2, with “The bacteria and peptide mixture was incubated for 0, 30, 60, 90, and 180 min at 37°C.” left out

[4] = system: Listeria monocytogenes ATCC 19115; test: Killing kinetics (colony counting); assay type: cell-based; conditions: 200 μg/mL peptide, 37°C, PBS pH 7.4; sampled at 0, 30, 60, 90, 180 min
Experimental: as §2

Staphylococcus aureus = test: Killing kinetics (colony counting); assay type: cell-based; conditions: 200 μg/mL peptide, 37°C, PBS pH 7.4; sampled at 0, 30, 60, 90, 180 min
Experimental: as §2

L. monocytogenes = test: Fluorescence microscopic analysis, LIVE/DEAD BacLight staining; assay type: cell-based, Listeria monocytogenes; conditions: 200 μg/mL peptide, 3 h at 37°C, SYTO9 / propidium iodide
Experimental: (§3) E. coli, S. aureus, and L. monocytogenes (5.0×10^5 CFU/mL) in PBS were incubated with a 200 μg/mL (final concentration) of the disulfide-LEAP-2 peptide for 3 h at 37°C. After incubation, the cells were washed with PBS and stained with LIVE/DEAD BacLight Bacterial Viability Kits (Invitrogen, USA) according to the manufacturer’s instructions. In brief, the bacteria were incubated for 15 min with SYTO9 green fluorescent […] and with propidium iodide in a dark room. The cells were then mounted onto glass slides and examined using EVOS FLoid Cell Imaging Station (Invitrogen, USA).

S. aureus = test: as above; assay type: cell-based, Staphylococcus aureus; conditions: 200 μg/mL peptide, 3 h at 37°C, SYTO9 / propidium iodide
Experimental: as §3

E. coli = test: as above; assay type: cell-based, Escherichia coli; conditions: 200 μg/mL peptide, 3 h at 37°C, SYTO9 / propidium iodide
Experimental: as §3

[5] = system: Salmonella enterica serovar Enteritidis YHS 383; test: Antimicrobial activity assay (colony counting); assay type: cell-based; conditions: 3 h at 37°C, PBS pH 7.4, colony counting; concentration not given
Experimental: as §1, §2

Structure (SMILES): CC[C@H](C)[C@@H]1NC(=O)[C@@H]2CSSC[C@@H](C(=O)N[C@@H](Cc3ccccc3)C(=O)N[C@@H](CC(C)C)C(=O)N[C@@H](CCCNC(=N)N)C(=O)N[C@@H](CO)C(=O)N[C@@H](C)C(=O)N[C@@H](CO)C(=O)N[C@@H](CCC(=O)O)C(=O)O)NC(=O)[C@H](CCCNC(=N)N)NC(=O)[C@H](CC(N)=O)NC(=O)[C@H](CCCCN)NC(=O)[C@H](CCCNC(=N)N)NC(=O)[C@H](CSSC[C@H](NC(=O)[C@H](CO)NC(=O)[C@H](C)NC(=O)CNC(=O)[C@@H](NC(=O)[C@@H]3CCCN3C(=O)[C@H](CCCNC(=N)N)NC(=O)[C@H](CC(C)C)NC(=O)[C@H](CO)NC(=O)[C@@H](NC(=O)CNC(=O)[C@H](CCCNC(=N)N)NC(=O)[C@H](Cc3c[nH]c4ccccc34)NC(=O)[C@H](Cc3ccccc3)NC(=O)[C@@H]3CCCN3C(=O)[C@@H](NC(=O)[C@@H](N)CCSC)[C@@H](C)O)C(C)C)[C@@H](C)CC)C(=O)N[C@@H](CCCNC(=N)N)C(=O)N[C@@H](CC(=O)O)C(=O)N[C@@H](CC(N)=O)C(=O)N[C@@H](CO)C(=O)N[C@@H](CCC(=O)O)C(=O)N2)NC(=O)[C@H](CC(C)C)NC(=O)[C@H](CCSC)NC(=O)[C@H]([C@@H](C)O)NC1=O [disulfide LEAP-2] (H-MTPFWRGVSLRPIGASCRDNSECITMLCRKNRCFLRSASE-OH; disulfide 17-28, 23-33; N-terminus and C-terminus assumed)
- killing of L. monocytogenes [1]: killed most
- killing effect / inhibition of cell proliferation, S. Typhimurium [2]: 90%
- killing of S. aureus [3]: killed most
- E. coli killed (E. coli ATCC 43888): more than 90%
- time in which all L. monocytogenes were killed [4]: ≤ 30 min
- killing of S. aureus over time (Staphylococcus aureus): killed S. aureus gradually over time
- live/dead staining of L. monocytogenes (red fluorescence = dead) (L. monocytogenes): most of the cells were dead
- live/dead staining of S. aureus (red fluorescence = dead) (S. aureus): most of the cells were dead
- live/dead staining of E. coli (red fluorescence = dead) (E. coli): most of the cells were dead

Structure (SMILES): CC[C@H](C)[C@H](NC(=O)[C@H](CS)NC(=O)[C@H](CCC(=O)O)NC(=O)[C@H](CO)NC(=O)[C@H](CC(N)=O)NC(=O)[C@H](CC(=O)O)NC(=O)[C@H](CCCNC(=N)N)NC(=O)[C@H](CS)NC(=O)[C@H](CO)NC(=O)[C@H](C)NC(=O)CNC(=O)[C@@H](NC(=O)[C@@H]1CCCN1C(=O)[C@H](CCCNC(=N)N)NC(=O)[C@H](CC(C)C)NC(=O)[C@H](CO)NC(=O)[C@@H](NC(=O)CNC(=O)[C@H](CCCNC(=N)N)NC(=O)[C@H](Cc1c[nH]c2ccccc12)NC(=O)[C@H](Cc1ccccc1)NC(=O)[C@@H]1CCCN1C(=O)[C@@H](NC(=O)[C@@H](N)CCSC)[C@@H](C)O)C(C)C)[C@@H](C)CC)C(=O)N[C@H](C(=O)N[C@@H](CCSC)C(=O)N[C@@H](CC(C)C)C(=O)N[C@@H](CS)C(=O)N[C@@H](CCCNC(=N)N)C(=O)N[C@@H](CCCCN)C(=O)N[C@@H](CC(N)=O)C(=O)N[C@@H](CCCNC(=N)N)C(=O)N[C@@H](CS)C(=O)N[C@@H](Cc1ccccc1)C(=O)N[C@@H](CC(C)C)C(=O)N[C@@H](CCCNC(=N)N)C(=O)N[C@@H](CO)C(=O)N[C@@H](C)C(=O)N[C@@H](CO)C(=O)N[C@@H](CCC(=O)O)C(=O)O)[C@@H](C)O [linear LEAP-2] (H-MTPFWRGVSLRPIGASCRDNSECITMLCRKNRCFLRSASE-OH; N-terminus and C-terminus assumed)
- S. Enteritidis inhibited [5]: not inhibited
- time in which all L. monocytogenes were killed [4]: ≤ 30 min
- killing of S. aureus over time (Staphylococcus aureus): killed S. aureus gradually over time
